From ChEMBL document CHEMBL4715872, “Soluble Guanylate Cyclase Inhibitors Discovered among Natural Compounds” (J Nat Prod, 2020)
The source made the active and inactive calls. The calls are words filed in the database; no cut-off is given here.

Legend:
[1] = Inhibition of angiogenesis in HEPC-CB1 cells assessed as decrease in pseudovessels at 10 to 20 uM after 13 hrs by fluorescence inverted microscopic analysis; assay type: functional, Homo sapiens, HEPC-CB.1; details: dose 10-20 µM
HUVEC [2] = assay: Inhibition of full length human sGC expressed in HUVEC cells assessed as increase in oxidation of heme at 20 uM after 2 hrs by spectroscopic analysis; assay type: cell-based
[3] = Inhibition of angiogenesis in HEPC-CB1 cells assessed as decrease in total length of pseudovessels at 10 to 20 uM after 13 hrs by fluorescence inverted microscopic analysis; assay type: functional, Homo sapiens, HEPC-CB.1; details: dose 10-20 µM
[4] = Inhibition of human sGC expressed in HUVEC cells assessed as reduction in GMP level incubated for 48 hrs in presence of NPS by ELISA; assay type: cell-based
[5] = Inhibition of angiogenesis in HEPC-CB1 cells assessed as decrease in number of closed structures at 10 to 20 uM after 13 hrs by fluorescence inverted microscopic analysis; assay type: functional, Homo sapiens, HEPC-CB.1; details: dose 10-20 µM
[6] = Inhibition of human sGC expressed in HUVEC cells assessed as reduction in GMP level incubated for 48 hrs by ELISA; assay type: cell-based
[7] = Inhibition of bovine lung sGC assessed as reduction in GMP level incubated for 48 hrs in presence of NPS by ELISA; assay type: tissue-based, Bos taurus
Bos taurus = organism: Bos taurus; assay: Selectivity ratio of IC50 for inhibition of bovine lung sGC assessed as reduction in GMP level in presence of NPS/BAY-412272 to IC50 for inhibition of bovine lung sGC assessed as reduction in GMP level in presence of NPS; assay type: tissue-based
[8] = Inhibition of bovine lung sGC assessed as reduction in GMP level incubated for 2 hrs in presence of BAY-412272 by ELISA; assay type: tissue-based, Bos taurus
[9] = Inhibition of bovine lung sGC assessed as reduction in GMP level incubated for 2 hrs in presence of NPS by ELISA; assay type: tissue-based, Bos taurus
[10] = Inhibition of bovine lung sGC assessed as reduction in GMP level incubated for 2 to 12 hrs in presence of NPS by ELISA; assay type: tissue-based, Bos taurus
[11] = Inhibition of human sGC expressed in HUVEC cells assessed as reduction in GMP level incubated for 24 hrs by ELISA; assay type: cell-based
[12] = Inhibition of human sGC expressed in HUVEC cells assessed as reduction in GMP level incubated for 24 hrs in presence of NPS by ELISA; assay type: cell-based
[13] = Inhibition of bovine lung sGC assessed as reduction in GMP level incubated for 2 hrs in presence of NPS/BAY-412272 by ELISA; assay type: tissue-based, Bos taurus
[14] = Inhibition of Francisella tularensis FabZ
[15] = Inhibition of Yersinia pestis FabZ
HEPC-CB.1 [16] = assay: Inhibition of angiogenesis in HEPC-CB1 cells assessed as decrease in number of closed structures at 20 uM after 13 hrs by fluorescence inverted microscopic analysis; assay type: functional, cell-based; details: Homo sapiens
HEPC-CB.1 [17] = assay: Inhibition of angiogenesis in HEPC-CB1 cells assessed as decrease in total length of pseudovessels at 20 uM after 13 hrs by fluorescence inverted microscopic analysis; assay type: functional, cell-based; details: Homo sapiens
HEPC-CB.1 [18] = assay: Inhibition of angiogenesis in HEPC-CB1 cells assessed as decrease in pseudovessels at 20 uM after 13 hrs by fluorescence inverted microscopic analysis; assay type: functional, cell-based; details: Homo sapiens
Hepatocyte = assay: Cytotoxicity against rat hepatocytes assessed as induction intracellular LDH release incubated for 8 to 24 hrs; assay type: cell-based
HEPC-CB.1 [19] = assay: Inhibition of angiogenesis in HEPC-CB1 cells assessed as decrease in number of closed structures at 10 uM after 13 hrs by fluorescence inverted microscopic analysis; assay type: functional, cell-based; details: Homo sapiens
[20] = Inhibition of human sGC expressed in HUVEC cells assessed as reduction in GMP level incubated for 2 hrs by ELISA; assay type: cell-based
[21] = target: T1, Dopamine beta-hydroxylase (Homo sapiens, UniProt P09172); assay: Inhibition of Dopamine beta-hydroxylase (unknown origin) incubated for 10 mins
T1 sequence (P09172 whole entry): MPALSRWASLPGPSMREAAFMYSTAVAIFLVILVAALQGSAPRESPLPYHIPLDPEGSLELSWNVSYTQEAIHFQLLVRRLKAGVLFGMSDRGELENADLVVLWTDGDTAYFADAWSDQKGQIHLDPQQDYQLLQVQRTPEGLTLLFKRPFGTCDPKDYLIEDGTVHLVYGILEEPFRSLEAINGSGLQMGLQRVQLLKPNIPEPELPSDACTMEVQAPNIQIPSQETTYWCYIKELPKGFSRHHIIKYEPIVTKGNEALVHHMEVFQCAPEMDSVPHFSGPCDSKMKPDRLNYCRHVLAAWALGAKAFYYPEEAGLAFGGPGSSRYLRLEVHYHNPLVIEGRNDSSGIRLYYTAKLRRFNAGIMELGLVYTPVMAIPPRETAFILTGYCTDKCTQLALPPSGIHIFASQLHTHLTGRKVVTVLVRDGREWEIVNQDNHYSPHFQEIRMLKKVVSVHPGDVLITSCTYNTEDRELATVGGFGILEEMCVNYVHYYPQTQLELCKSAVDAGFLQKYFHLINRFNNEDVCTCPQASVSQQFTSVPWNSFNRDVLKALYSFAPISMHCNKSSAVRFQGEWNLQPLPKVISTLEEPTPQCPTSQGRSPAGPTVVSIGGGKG

HEPC-CB.1 [22] = assay: Inhibition of angiogenesis in HEPC-CB1 cells assessed as decrease in total length of pseudovessels at 10 uM after 13 hrs by fluorescence inverted microscopic analysis; assay type: functional, cell-based; details: Homo sapiens
HUVEC [23] = assay: Inhibition of human sGC expressed in HUVEC cells assessed as reduction in GMP level at 20 uM in presence of NPS/BAY-412272 by ELISA relative to control; assay type: cell-based
HUVEC [24] = assay: Selectivity ratio of inhibition of human sGC expressed in HUVEC cells assessed as reduction in GMP level at 2 uM in presence of NPS to inhibition of human sGC expressed in HUVEC cells assessed as reduction in GMP level at 2 uM in presence of NPS/BAY-412272; assay type: cell-based
HUVEC [25] = assay: Inhibition of human sGC expressed in HUVEC cells assessed as reduction in GMP level at 2 uM in presence of NPS by ELISA relative to control; assay type: cell-based
[26] = Inhibition of rat small intestine GST using CDNB as substrate by spectrophotometric method; assay type: tissue-based
HUVEC [27] = assay: Selectivity ratio of IC50 for inhibition of human sGC expressed in HUVEC cells assessed as reduction in GMP level incubated for 2 hrs to human sGC expressed in HUVEC cells assessed as reduction in GMP level incubated for 2 hrs in presence of NPS; assay type: cell-based
HEPC-CB.1 [28] = assay: Inhibition of angiogenesis in HEPC-CB1 cells assessed as decrease in pseudovessels at 10 uM after 13 hrs by fluorescence inverted microscopic analysis; assay type: functional, cell-based; details: Homo sapiens
HUVEC [29] = assay: Selectivity ratio of inhibition of human sGC expressed in HUVEC cells assessed as reduction in GMP level at 20 uM in presence of NPS to inhibition of human sGC expressed in HUVEC cells assessed as reduction in GMP level at 20 uM in presence of NPS/BAY-412272; assay type: cell-based

Structure (SMILES)	inhibition (HUVEC [2])	Ratio IC50 (Bos taurus)	IC50 [8] [nM]	IC50 [9] [nM]	IC50 [10] [nM]	IC50 [11] [nM]	IC50 [12] [nM]	IC50 [13] [nM]	also measured
O=C1C(O)=C(O)C(=O)c2c(O)ccc(O)c21	inactive	–	–	–	–	–	–	–	fold change (FC) [1]: 2; fold change (FC) [3]: 2; IC50 [4]: 10000 nM; fold change (FC) [5]: 2; IC50 [6]: 12000 nM; IC50 [7]: 5000 nM
O=C1C(O)=C(O)C(=O)c2c(O)c(Cl)cc(O)c21	inactive	–	–	–	–	–	–	–	IC50 [4]: 13000 nM; IC50 [6]: 12000 nM; IC50 [7]: 3000 nM
CC(=O)OC1=C(O)C(=O)c2c(OC(C)=O)ccc(OC(C)=O)c2C1=O	Active	2	1400	500	200	29000	28000	1000	–
COc1cc(C/C=C/c2ccccc2)c(OC)cc1O [VIOLASTYRENE]	Active	2	4900	800	800	16000	16000	1800	–
COc1cc(C)c2c(c1C=O)Oc1c(c(C)c(O)c3c1C(O)OC3=O)OC2=O (configuration not stated) [STICTIC ACID]	inactive	2	2600	300	200	44000	47000	2500	IC50 [14]: 13000 nM; IC50 [15]: 13000 nM; inhibition (HEPC-CB.1 [16]): Active; inhibition (HEPC-CB.1 [17]): Active; inhibition (HEPC-CB.1 [18]): Active; IC50 (Hepatocyte): ≤ 13000 nM
Cc1cc(O)c2c(=O)c3c(O)cc(O)c4c5c(O)cc(O)c6c(=O)c7c(O)cc(C)c8c1c2c(c34)c(c78)c65 [HYPERICIN]	–	–	320	400	200	–	700	350	inhibition (HEPC-CB.1 [19]): Active; IC50 [20]: 400 nM; IC50 [21]: 21000 nM; inhibition (HEPC-CB.1 [22]): Active; inhibition (HUVEC [23]): Active; Ratio IC50 (HUVEC [24]): 3; inhibition (HUVEC [25]): < 95%; Ki [26]: 200 nM; Ratio IC50 (HUVEC [27]): 2; inhibition (HEPC-CB.1 [28]): Active
COc1c(O)c2c(=O)cc(OC)c3c4c(OC)cc(O)c5c(=O)c(OC)c6c(c(c1[C@H](C(C)=O)[C@](C)(O)C6)c23)c54	–	–	–	1500	1500	–	1500	–	inhibition (HEPC-CB.1 [19]): Active; IC50 [20]: 800 nM; Ratio IC50 (HUVEC [29]): 2; inhibition (HEPC-CB.1 [22]): Active; Ratio IC50 (HUVEC [24]): 3; inhibition (HUVEC [25]): < 95%; Ratio IC50 (HUVEC [27]): 2; inhibition (HEPC-CB.1 [28]): Active
